# Read-outs that look alike come from different tables or passages of the source.
# Target: T1, human Nav1.7 (Homo sapiens, UniProt Q15858)
# T1 construct: expressed in transfected cells; host or cells: HEK 293T
# Assay: Patch clamp recording of heterologously expressed human Nav1.7 currents in HEK 293T cells
# Assay type: cell-based
# Conditions: for IC50: 50-ms depolarizing pulse to 0 mV, HEK 293T cells, mean±SEM (n=4-10), read-out: IC50 for human Nav1.7 inhibition
# Method: FIG. 1. A) Families of human Nav1.7 current traces in the presence of increasing concentrations of mepyramine (0-100 μM). The current was elicited by a 50-ms depolarizing pulse to 0 mV from a holding potential of −100 mV (top) or −60 mV (bottom). Voltage steps were applied every 15 s. B) Cumulative dose-response curves for human Nav1.7 inhibition by mepyramine derived from experiments as in A. The IC50 values were 4±0.1 μM at Vh of −60 mV (empty circles) or 15.3±0.1 μM at Vh of −100 mV (filled circles). Each data point is the mean±SEM (n=4-10). C) Representative I-V curve family of hNav1.7 currents recorded using a protocol (inset) where cells were depolarized to a variety of potentials from a holding potential of −100 mV. D) Normalized human Nav1.7 activation curves obtained from experiments as in C. Curves were fit by using a first-order Boltzmann relations (n=16).
# Human embryonic kidney (HEK) 293T cells were cultured as described in Hao et al. (Neuron, 2013, 77:899-914) and were recorded 48 hours after co-transfection with human Nav1.7 (hNav1.7) and green fluorescent protein clones. Patch clamp recordings were performed using borosilicate electrodes (Harvard Apparatus) having a resistance of […] when filled with the intracellular solution. Recordings were made at room temperature (20-24° C.) using an Axopatch 200B amplifier (Axon Instruments), filtered at 1 kHz, and digitally sampled at 5-20 kHz. Data acquisition was performed with pClamp 10.2, and data were analyzed using Prism 4 software.
# For voltage clamp protocols, currents were leak-subtracted by using a P/6 protocol. Voltage errors were minimized using 75-80% series resistance compensation. Intracellular pipette solution consisted of (mM): 130 CsCl, 10 Hepes, 8 NaCl, 0.4 NaGTP, 4 MgATP, 1 MgCl2, 1 CaCl2 and 10 EGTA (adjusted to pH7.3 with CsOH, ˜300 mOsm/l). […] Stock solution of Mepyramine […] was dissolved in distilled water. Cells were perfused with bath solution at flow rate of 5 mL/min.
# The dose-response curve for mepyramine was fitted with the Hill equation: I/Imax=[M]^nH/(IC50^nH+[M]^nH), where IC50 is the half-maximal inhibitory concentration and nH the Hill coefficient. The activation curve (G-V) was fitted using Boltzmann function: G/Gmax=1/(1+exp^[(V1/2−V)/k]) where G/Gmax is the normalized conductance, V1/2 is the voltage of half-maximum conductance activation, and k is the steepness factor. Data were presented as mean±SEM.
# [1] = HEK cells, in the absence of histamine and in the absence of H1 receptors
# T1 sequence (Q15858 whole entry): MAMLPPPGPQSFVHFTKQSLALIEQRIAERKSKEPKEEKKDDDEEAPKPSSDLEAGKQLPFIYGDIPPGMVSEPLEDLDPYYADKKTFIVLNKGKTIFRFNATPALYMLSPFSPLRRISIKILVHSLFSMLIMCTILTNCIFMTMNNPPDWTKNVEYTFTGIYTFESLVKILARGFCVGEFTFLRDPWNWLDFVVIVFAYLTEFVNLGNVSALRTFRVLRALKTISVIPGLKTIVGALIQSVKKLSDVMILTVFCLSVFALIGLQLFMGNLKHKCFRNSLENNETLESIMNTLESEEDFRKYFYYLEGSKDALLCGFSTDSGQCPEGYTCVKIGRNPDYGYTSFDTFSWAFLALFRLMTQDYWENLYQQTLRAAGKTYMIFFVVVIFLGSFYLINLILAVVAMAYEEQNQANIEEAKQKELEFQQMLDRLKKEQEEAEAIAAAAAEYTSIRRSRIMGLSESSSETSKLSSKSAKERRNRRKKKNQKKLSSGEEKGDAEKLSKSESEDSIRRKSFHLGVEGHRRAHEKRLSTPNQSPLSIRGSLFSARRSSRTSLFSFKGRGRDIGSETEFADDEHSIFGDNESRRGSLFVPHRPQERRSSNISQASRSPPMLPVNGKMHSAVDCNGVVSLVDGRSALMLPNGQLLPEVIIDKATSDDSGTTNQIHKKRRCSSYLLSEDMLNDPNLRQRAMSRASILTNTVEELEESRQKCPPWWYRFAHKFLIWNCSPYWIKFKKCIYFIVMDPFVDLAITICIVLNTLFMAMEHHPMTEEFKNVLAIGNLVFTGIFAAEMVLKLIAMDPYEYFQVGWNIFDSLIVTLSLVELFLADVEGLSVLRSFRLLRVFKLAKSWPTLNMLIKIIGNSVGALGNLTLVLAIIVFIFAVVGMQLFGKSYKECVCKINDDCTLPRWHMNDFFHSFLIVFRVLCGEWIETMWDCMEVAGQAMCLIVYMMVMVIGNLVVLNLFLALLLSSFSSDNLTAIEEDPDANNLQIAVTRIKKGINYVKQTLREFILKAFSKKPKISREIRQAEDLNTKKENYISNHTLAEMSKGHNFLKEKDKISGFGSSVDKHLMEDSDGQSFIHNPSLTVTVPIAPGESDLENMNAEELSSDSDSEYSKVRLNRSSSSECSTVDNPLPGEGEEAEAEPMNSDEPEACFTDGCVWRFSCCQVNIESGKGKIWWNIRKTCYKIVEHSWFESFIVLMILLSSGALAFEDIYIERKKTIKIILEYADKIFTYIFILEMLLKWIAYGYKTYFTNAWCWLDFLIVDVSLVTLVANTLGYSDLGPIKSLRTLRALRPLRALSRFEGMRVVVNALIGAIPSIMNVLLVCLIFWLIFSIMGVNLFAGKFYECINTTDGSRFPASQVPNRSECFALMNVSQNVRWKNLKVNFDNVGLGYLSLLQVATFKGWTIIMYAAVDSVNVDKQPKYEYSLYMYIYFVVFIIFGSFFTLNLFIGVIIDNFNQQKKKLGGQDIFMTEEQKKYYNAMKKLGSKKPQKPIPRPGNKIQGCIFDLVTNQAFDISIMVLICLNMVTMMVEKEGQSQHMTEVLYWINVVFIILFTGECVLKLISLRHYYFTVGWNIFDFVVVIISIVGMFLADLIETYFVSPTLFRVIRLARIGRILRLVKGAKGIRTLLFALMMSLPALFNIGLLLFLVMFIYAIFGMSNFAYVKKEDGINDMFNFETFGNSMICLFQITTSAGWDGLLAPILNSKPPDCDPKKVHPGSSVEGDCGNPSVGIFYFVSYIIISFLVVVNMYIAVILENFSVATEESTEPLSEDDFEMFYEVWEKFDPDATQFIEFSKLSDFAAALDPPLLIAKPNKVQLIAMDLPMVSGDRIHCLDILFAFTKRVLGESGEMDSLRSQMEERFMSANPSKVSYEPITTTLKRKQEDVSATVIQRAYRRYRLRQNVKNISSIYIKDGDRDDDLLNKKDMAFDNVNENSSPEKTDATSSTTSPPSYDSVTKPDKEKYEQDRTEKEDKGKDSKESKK
smiles,measurement,setting,value
"COc1ccc(CN(CCN(C)C)c2ccccn2)cc1 [mepyramine, N,N-dimethyl-N′-(4-methoxybenzyl)-N′-(2-pyridyl) ethylenediamine]",Dependence of the effect on H1 receptors,[1],independent of the H1 receptors
same,Inhibition of heterologously expressed human Nav1.7 channels,[1],inhibits
same,IC50,Vh of −60 mV,4 ± 0.1 µM
same,IC50,Vh of −100 mV,15.3 ± 0.1 µM

# Reference: patent US20230321059A1, “MEPYRAMINE FOR USE IN THE TOPICAL TREATMENT OF NEUROPATHIC PAIN” (Assistance Publique - Hopitaux de Paris, priority 2020, published 2023)
